Assay results as given in ChEMBL document CHEMBL3507680, “University of Dundee, Gates Library screen for HepG2 cell viability”.

test: Human HepG2 cell viability assay in 384 well format; format: toxicity, cell-based; parameters: dose 125 nL, time 70.5 hour; cytotoxicity at 70.5 h: concentration not given beside the values; details: HepG2 cells, read-out: Inhibition

Row | SMILES | cytotoxicity at 70.5 h
1 | CN(Cc1ccc(F)cc1)Cc1nc(-c2cnccn2)no1 | -7.07%
2 | CCN(CC)Cc1nc2c(o1)CN(C(=O)c1ccncc1F)C2 | -4.3%
3 | CCOCC1CN(C(=O)CC2=CCCCC2)Cc2nnn(C)c21 (stereo not given) | -12.8%
4 | O=C([C@@H]1CCO[C@@H]2CCN(CC3CC3)C[C@H]21)N1CCCC1 | -2.49%
5 | O=C([C@H]1CCCO1)N1CCC2(CC1)Cc1ccccc1CNC2=O | 3.51%
6 | Cc1cccc(-c2nnn3c2COC(CNC(=O)N2CCCC2)C3)c1 (stereo not given) | 1.74%
7 | O=C1CO[C@@H]2CNC[C@H]2N1CC1CC1 | 2.73%
8 | Cc1ccc2c(c1)C(N1CCOCC1)CC21CCNCC1 (stereo not given) | -8.36%
9 | CCc1cnc(N2C[C@H]3CCCC(N(C)Cc4ccccn4)[C@H]3C2)nc1 (stereo not given in full) | -10.1%
10 | CC(C)Cn1c2c(ccc1=O)CC(NC(=O)c1ccsc1)CC2 (stereo not given) | -11.8%
11 | CS(=O)(=O)N1CCOCC2(CCN(c3cnccn3)CC2)C1 | -7.29%
12 | Cn1cccc1C(=O)N1C[C@H]2CN(CCN3CCCC3)C(=O)[C@H]2C1 | -8.62%
13 | Cc1cnc(C(=O)N2CCC3(CCCN(c4nncs4)C3)C2)cn1 (stereo not given) | -0.974%
14 | COc1ccc(C(=O)N2CCN(C(=O)Cn3nccc3C)CC2)cc1 | 1.46%
15 | Cc1nc(CN(C)CC2CCCN(CCc3ccc(Cl)cc3)C2)n(C)n1 (stereo not given) | -19.1%
16 | CS(=O)(=O)N1CCc2[nH]cnc2C12CCN(C(=O)c1ccc[nH]1)CC2 | -3.3%
17 | Cc1nc(-c2ccncc2)ncc1C(C)NC(=O)C1=NN(C)C(=O)CC1 (stereo not given) | -8.41%
18 | Nc1cc(N2CCCC(CO)(Cc3ccccc3F)C2)nc(N)n1 (stereo not given) | 28.8%
19 | Cc1ccc(NC2(C(=O)NCc3c(C)n[nH]c3C)CCCC2)cc1 | -5.51%
20 | COc1cccc(C(=O)C2CCCN(c3cc(C#N)ccn3)C2)c1 (stereo not given) | -10.3%
21 | O=C(NCCn1cccc1)C1CCN(C2CCCCC2)CC1 | -13.6%
22 | COc1ccc(C)cc1-n1c(COC(C)C)n[nH]c1=O | -18.9%

Row | SMILES | cytotoxicity at 70.5 h
23 | O=C(c1cccc(S(=O)(=O)NCCc2nccs2)c1)N1CCOCC1 | -3.1%
24 | COc1cccc(CC(=O)N2CCCN(c3ccnc(C)c3)CC2)c1 | -3.97%
25 | CCN1CCN(S(=O)(=O)N2CCC(OC)CC2)[C@H]2CS(=O)(=O)C[C@H]21 | -9.02%
26 | Cc1ccccc1SC1CCN(C(=O)C2CNCC(=O)N2)CC1 (stereo not given) | -1.6%
27 | CN(CCCc1ccccc1)C(=O)c1cn2c(n1)CNCC2 | -3.6%
28 | COc1ccc(N2CCN(Cc3nc(CSC)no3)C(C)C2=O)cc1 (stereo not given) | -21.8%
29 | CCCSc1ccccc1NC(=O)N1CCC(N2CCSCC2)CC1 | 0.648%
30 | Cc1cc(-c2c(C)c(-c3cnn(C)c3)nc(N)c2C#N)oc1C | 37.4%
31 | CN(C)C(=O)CN1C[C@@H]2CC[C@H](C1)N(C(=O)CCCn1cncn1)C2 | -8.72%
32 | FC(F)(F)c1ccnc(N2CCC(c3nccn3CC3CC3)CC2)n1 | -4.46%
33 | COc1c(C)cc(S(=O)(=O)NCC2CNCCOC2)cc1C (stereo not given) | 3.62%
34 | Cc1nc2ccccc2n1Cc1cc(C(=O)NC2CCOC2)no1 (stereo not given) | -18.8%
35 | CC(C)n1ccnc1C1CCCN(c2nc3ccccc3s2)C1 (stereo not given) | 2.12%
36 | CN(C)CC(=O)Nc1ccc(C(=O)N(C)CCc2cn[nH]c2)cc1 | -1.37%
37 | Cc1cc2[nH]c(CN3CCCCC3c3cccc(F)c3)cc(=O)n2n1 (stereo not given) | -5.96%
38 | CC(C)CN(Cc1ccccn1)Cc1ccccc1C(=O)O | 14.4%
39 | Cc1ccc(C(=O)N2CCC3(CC2)CN(CCN(C)C)C(=O)O3)c(F)c1 | 7.08%
40 | COc1cc(OC)cc(C2CC(=O)Nc3c2nc2n3CCCC2)c1 (stereo not given) | -3.11%
41 | CC(C)c1nnc(CN2CCC3(CC2)Nc2ccccc2NC3=O)o1 | 18%
42 | CC(C)S(=O)(=O)NCc1cccnc1Oc1ccc(F)cc1F | 1.03%
43 | CC(C)N(C)C(=O)Cn1ncc(N(C)CCc2ccccc2)cc1=O | -3.47%
44 | NC(=O)c1cnc2n1CCN(C(=O)c1cccc(Cn3cccn3)c1)C2 | -5.38%

Row | SMILES | cytotoxicity at 70.5 h
45 | CC1(c2ccccc2)CCC(=O)N(CC2(N3CCOCC3)CCCC2)C1 (stereo not given) | 6.77%
46 | Nc1ncc(CN2CCC(CCC(=O)NC3CC3)CC2)cn1 | 0.29%
47 | Cc1cc(N2CCN(C(=O)c3cnn(C(C)C)c3)CC2)cc(C)n1 | 7.11%
48 | CCOc1ccc(OCc2nc3c(c(=O)[nH]2)CCNC3)cc1 | -13.5%
49 | CNc1ccnc(N2CCC(c3nnc(CN4CCCC4)n3C)CC2)n1 | 13.4%
50 | CN(CCCc1cnn(C)c1)c1nccc(-c2cc(C(=O)O)ccn2)n1 | -5.12%
51 | O=C1NCCCc2[nH]c(-c3nc(C4CCCCC4)no3)nc21 | 8.47%
52 | O=C(c1cn2cc(Cl)cnc2n1)N1CCOCC(O)(CN2CCCC2)C1 (stereo not given) | -1.97%
53 | Cc1cc(C)c(C(=O)N2CCN(c3ncccc3C#N)CC2)c(=O)[nH]1 | 1.08%
54 | Cc1nc(CN2CCC(c3cc(N4CCCC4)ncn3)CC2)cs1 | 4.68%
55 | COCCCn1cnnc1CNC(=O)c1[nH]c2c(C)cc(C)cc2c1C | -6.04%
56 | CCc1ocnc1C(=O)N1CCC(n2cc(-c3ccsc3)nn2)CC1 | -10.3%
57 | CC(=O)NCC(=O)N1Cc2cnc(CC(C)C)nc2C1 | -5.57%
58 | CCC(CO)N(Cc1ccco1)C(=O)c1sccc1NC(C)=O (stereo not given) | -5.95%
59 | CN(C)CCNCC1(O)CCCN(Cc2cccc(F)c2F)C1=O (stereo not given) | 16.1%
60 | CCCN1CC2(CCN(C)CC2)CC1C(=O)NCCn1cccn1 (stereo not given) | -6%
61 | CN(C)[C@H]1CCN(c2ccnc(C(=O)NCc3ccco3)c2)C1 | -5.04%
62 | COCC1CCN(Cc2cc(O)c3c(C)ccc(C)c3n2)CC1 | 17.7%
63 | CN(CCc1cnn(C)c1)C(=O)C1COc2ccccc2C1 (stereo not given) | -10.5%
64 | OC1(CN2CCCC2)COCCN(c2nnc(-c3ccccc3)s2)C1 (stereo not given) | 15.8%
65 | N[C@H]1CN(C(=O)CCc2cc(Cl)no2)C[C@@H]1c1ccccc1 | 29%
66 | CC(=O)c1cc(CC(=O)N2CCCC2c2nc(C(C)C)no2)cs1 (stereo not given) | -3.24%

Row | SMILES | cytotoxicity at 70.5 h
67 | CCN1CCC(CC(=O)NCc2cc(C)nn2C)CC1 | -4.69%
68 | Cc1cccc(N2CCN(CCC(=O)NCc3cccnc3)CC2)c1 | -0.687%
69 | CC(C)NC(=O)N1CCCC(c2nnc(CN3CCOCC3)n2C)C1 (stereo not given) | -10.9%
70 | Cn1ccc2c(-c3cc(N4CCCCC4)ncn3)ccnc21 | 24.9%
71 | O=C1NCC2(CCCN(C(=O)c3csc(-c4cccs4)n3)C2)O1 (stereo not given) | -14.3%
72 | CC(C)CC(C)NCc1cccnc1N1CCN(c2ccccn2)CC1 (stereo not given) | -12.3%
73 | CCc1nnc(CN(CC)C(=O)C2CC(=O)N(C3CC3)C2)o1 (stereo not given) | -3.34%
74 | O=C1CCC2(CCOC2)CN1Cc1nc2ccc(Cl)cc2[nH]1 (stereo not given) | -1.72%
75 | CN1C[C@@H]2CC[C@H](CC1=O)N2C(=O)c1ccc(-c2ccccc2)[nH]c1=O | -8.24%
76 | CCC1CN(C(=O)c2ccc(O)c(C)c2)CCN1C(C)C (stereo not given) | -5.22%
77 | CCc1cc(CN2CCCCC2c2ccc(F)cc2)on1 (stereo not given) | -5.55%
78 | O=C1CCCN1CCCNCc1cc(O)c2cccc(F)c2n1 | -3.49%
79 | CC(=O)N1CCc2c(nc(N(C)C)nc2N(C)CC2CCCO2)C1 (stereo not given) | -6.61%
80 | Cc1cccc(C(C(=O)NCCc2nc(C)cc(=O)[nH]2)N(C)C)c1 (stereo not given) | 25.6%
81 | Cc1ccnc(N2CCCC(c3nccn3C(C)C)C2)n1 (stereo not given) | 1.49%
82 | Cc1c(C(=O)N2C[C@@H](CN(C)CCO)[C@@H](CO)C2)sc2ccccc12 | -9.44%
83 | CC(C)c1nccn1C(C)C(=O)NC1Cc2ccccc2C1 (stereo not given) | -1.16%
84 | N#Cc1ccc(C(=O)N2CCCC3(C=Cc4ccccc4O3)CC2)cn1 (stereo not given) | 7.89%
85 | Cn1ccnc1CN1CCN(Cc2ccccc2)[C@@H]2CS(=O)(=O)C[C@@H]21 | -9.92%
86 | O=C1NCCN2CCN(Cc3ccc(Cl)c(Cl)c3)CC12 (stereo not given) | -8.1%
87 | CCCC(C(=O)NC1CCN(S(C)(=O)=O)CC1)n1cccc1 (stereo not given) | -3.64%
88 | Cc1ccccc1N1CCN(C(=O)c2cscn2)C(C)C1 (stereo not given) | -1.54%

Row | SMILES | cytotoxicity at 70.5 h
89 | Cc1nc(N)sc1C(=O)N[C@H]1CN(CCO)C[C@@H]1C1CC1 | -2.54%
90 | O=S1(=O)CCC(n2cc(C3=CCN(CCN4CCCCC4)CC3)cn2)C1 (stereo not given) | -7.91%
91 | CC(C)=CCN1C[C@H]2CC[C@@H]1CN(C(=O)c1ccc(S(N)(=O)=O)cc1)C2 | 1.36%
92 | COCCN1CCN(Cc2nc3c(s2)CCCC3)[C@H]2CS(=O)(=O)C[C@H]21 | -8.18%
93 | O=C(Nc1ccc(-c2ccn[nH]2)cc1)C1CCCN(Cc2ccoc2)C1 (stereo not given) | 1.09%
94 | CCN(CCO)C(=O)C1CCC(=O)N(Cc2cccc(OC)c2)C1 (stereo not given) | -13.2%
95 | Cn1cc(CN2CCOC(CCNC(=O)c3ccsc3)C2)cn1 (stereo not given) | -0.896%
96 | CC(=O)NCCNC(=O)C1(Oc2cccnc2C)CCNCC1 | -5.79%
97 | Nc1nccc(N2CCNC(C(=O)NCc3ccccn3)C2)n1 (stereo not given) | 10.1%
98 | O=c1c2cccnc2ccn1Cc1nccn1C1CC1 | -10.2%
99 | Cc1noc(C)c1CC(=O)N1CCCC(Cn2ccnc2C)C1 (stereo not given) | -16.8%
100 | Oc1cc(CN2CCC(O)(Cn3ccnc3)CC2)nc2c(Cl)cccc12 | -9.08%
101 | Cc1nn(C)c2nc(N3CCCCC3c3ccc(F)cc3)sc12 (stereo not given) | 0.992%
102 | CCc1cnc(NCC(c2cccnc2)N2CCOCC2)nc1 (stereo not given) | -1.2%
103 | CC(C)N1CCc2c(CNC(=O)c3nccn3C)cncc2C1 | -4.9%
104 | CCN1CCC2(CC1)CC(NC(=O)c1csnn1)c1ccccc1O2 (stereo not given) | -7.53%
105 | CCN1CCOCC12CCN(c1nccs1)CC2 | -13.5%
106 | O=C(NCc1cnc2n1CCN(CC1CCOCC1)C2)c1ccno1 | 31.3%
107 | OCCOCc1n[nH]c2c1CN(Cc1ccccn1)C2 | -7.78%
108 | Cc1cncc(C(=O)N2CCC3(CCCN(c4nncs4)C3)C2)c1 (stereo not given) | -3.85%
109 | O=C(NCc1cnc2n1CCN(Cc1nccs1)C2)c1ccno1 | -3.38%
110 | O=C(Nc1cccnc1)[C@H]1CN(Cc2ccco2)C[C@H]2OCC[C@@H]12 | -7.09%
